From patent publication US20240148835A1, “TREATING DISORDERS ASSOCIATED WITH DYRK1A DYSFUNCTION” (UNIVERSITY OF FLORIDA RESEARCH FOUNDATION, INCORPORATED, priority 2021, published 2024) come the findings set out here.

For the assay, the system named is neonatal cHets. Description: Neonatal GSK3 inhibitor SB216763 treatment: cortex mass, isotropic fractionator cell number and density. In kind it is in vivo, mouse. Here is the method: We utilized the previously mentioned neonatal paradigm to inject cHets daily with GSK3 inhibitor SB216763 or vehicle from P0 to P7 (FIG. 25A).
(1-3)IGF-1 was acquired from VWR/Bachem (catalog #H-2468.1000) and dissolved in saline with 0.01% BSA fresh every day. Intraperitoneal injections of 10 mg kg′ (1-3)IGF-1 or vehicle were delivered daily at 8 a.m. starting on P14 and ending on P85. […] The S6K1 inhibitor PF-4708671 was acquired from Medkoo Biosciences (#406432) dissolved in 10% DMSO, 10% tween 80 and 80% water. (1-3)IGF-1 (10 mg kg′) and PF-4708671 (50 mg kg^−1) or vehicle were injected subcutaneously into pups from P0 to P7. Rapamycin was acquired from LC laboratories (R-5000) and dissolved in 4% ethanol, 5% tween-80, and 5% PEG400 in PBS. (1-3)IGF-1 (10 mg kg′) and Rapamycin (1 mg kg′) or vehicle were injected subcutaneously into pups from P0 to P7. SB216763 was acquired from TOCRIS (#1616) and dissolved in 5% DMSO and 0.9% saline in dH20. SB216763 (0.5 mg kg′) was injected subcutaneously into pups from P0 to P7.
Adult animals were perfused with 4% PFA, and pups underwent rapid decapitation and dissection. Brains were fixed in 4% PFA for one week, and then the cortex was dissected out and dissociated in a 7 ml glass tissue homogenizer (Kontes Glass) in dissociation buffer (1% Triton X-100 in 40 mM sodium citrate). 1 ml of nuclei was removed and stained with 1:50 DAPI (Invitrogen, catalog #D3571) before being loaded onto a hemocytometer (Fisher Scientific, catalog #0267110). Per animal, 6 technical replicates of 10 μl nuclei were imaged and counted in the hemocytometer (0.1 μl nuclei counted per technical replicate). After calculating the total cell number per cortex, the number of cells was divided by mg of cortex to obtain density.

[1] abbreviates: 0.5 mg kg subcutaneous daily P0 to P7.

Molecules are shown by their SMILES. “Also recorded” adds a separate entry of the source.

`Cn1cc(C2=C(c3ccc(Cl)cc3Cl)C(=O)NC2=O)c2ccccc21` [SB216763]: under setting [1], the cellular density result is reported as “no effect on cellular density; also recorded: unaltered by any genotype or treatment”, the “cortex mass of controls” value is “no effect; also recorded: unaltered by treatment”, the “cortical cell number of cHets” value is reported as “restored the decreased cellular number; also recorded: restored by SB216763 treatment” and the “cortical cell number of controls” value is listed as “no effect on SB216763-treated controls”. Further, the “cortex mass of cHets” value (0.5 mg kg subcutaneous daily P0 to P7, vs vehicle-treated controls) was “normalized cortex mass; also recorded: restored by treatment with SB216763”.
